Read-outs that look alike come from different tables or passages of the source.
Biological target: T1, SMARCA2 (Homo sapiens, UniProt P51531)
T1 construct: endogenous in cells
Test: SMARCA2 HiBiT degradation assay (cellular)
Type: cell-based
Details: for DC50: read-out: HiBit A549 SMARCA2 IP

[1] = A549, Emax = amount of residual protein remaining in the cell following compound treatment
[2] = SMARCA2 HiBiT cells, luminescence readout, 11-point titration from 10 μM, 6 hours or 16 hours

T1 sequence (P51531 whole entry): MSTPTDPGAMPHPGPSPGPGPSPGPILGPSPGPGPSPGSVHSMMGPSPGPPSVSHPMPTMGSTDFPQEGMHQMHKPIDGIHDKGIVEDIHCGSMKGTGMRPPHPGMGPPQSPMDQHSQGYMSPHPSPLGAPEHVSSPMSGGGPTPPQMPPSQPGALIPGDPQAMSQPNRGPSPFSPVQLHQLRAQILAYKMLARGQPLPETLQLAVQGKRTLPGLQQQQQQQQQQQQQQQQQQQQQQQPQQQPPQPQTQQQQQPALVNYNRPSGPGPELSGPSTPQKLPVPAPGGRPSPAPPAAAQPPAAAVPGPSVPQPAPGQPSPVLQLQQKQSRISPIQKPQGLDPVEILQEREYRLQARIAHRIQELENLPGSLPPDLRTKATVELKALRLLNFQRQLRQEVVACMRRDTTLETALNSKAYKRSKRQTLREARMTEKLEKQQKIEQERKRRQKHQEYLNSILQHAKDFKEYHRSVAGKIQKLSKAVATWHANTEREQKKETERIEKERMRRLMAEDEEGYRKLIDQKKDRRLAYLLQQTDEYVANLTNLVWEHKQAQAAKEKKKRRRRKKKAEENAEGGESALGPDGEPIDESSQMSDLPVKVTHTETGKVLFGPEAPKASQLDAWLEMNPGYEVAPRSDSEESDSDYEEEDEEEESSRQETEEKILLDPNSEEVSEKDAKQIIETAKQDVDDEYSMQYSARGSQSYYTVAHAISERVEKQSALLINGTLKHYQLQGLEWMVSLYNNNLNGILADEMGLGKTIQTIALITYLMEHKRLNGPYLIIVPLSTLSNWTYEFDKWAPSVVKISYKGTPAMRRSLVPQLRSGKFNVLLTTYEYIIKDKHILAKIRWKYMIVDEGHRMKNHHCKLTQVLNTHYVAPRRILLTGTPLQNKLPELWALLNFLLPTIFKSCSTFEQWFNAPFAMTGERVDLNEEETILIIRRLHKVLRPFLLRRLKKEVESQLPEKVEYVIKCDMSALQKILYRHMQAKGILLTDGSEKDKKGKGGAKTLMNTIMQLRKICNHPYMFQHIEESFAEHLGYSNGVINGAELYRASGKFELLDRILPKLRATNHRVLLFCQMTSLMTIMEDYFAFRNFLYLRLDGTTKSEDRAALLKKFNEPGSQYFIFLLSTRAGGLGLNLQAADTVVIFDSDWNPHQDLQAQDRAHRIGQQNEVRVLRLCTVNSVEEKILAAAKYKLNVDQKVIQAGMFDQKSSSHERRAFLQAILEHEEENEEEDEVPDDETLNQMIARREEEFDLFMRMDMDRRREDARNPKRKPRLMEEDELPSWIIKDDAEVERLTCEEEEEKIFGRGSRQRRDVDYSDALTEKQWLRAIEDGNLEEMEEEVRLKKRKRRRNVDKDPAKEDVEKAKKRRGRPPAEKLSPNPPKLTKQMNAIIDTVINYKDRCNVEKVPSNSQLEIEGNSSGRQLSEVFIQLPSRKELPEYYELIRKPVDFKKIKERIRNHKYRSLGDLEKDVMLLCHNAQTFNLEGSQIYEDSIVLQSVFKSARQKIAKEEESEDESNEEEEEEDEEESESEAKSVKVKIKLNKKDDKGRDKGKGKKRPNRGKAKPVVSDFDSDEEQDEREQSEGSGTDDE

Row | Compound | Emax [1] [%] | DC50 [2] [nM] | Emax (A549, different HIBIT SMARCA2 clone (footnote a), residual protein remaining) [%] | DC50 (different HIBIT SMARCA2 clone (footnote a)) [nM]
1 | Cc1ncsc1-c1ccc(CNC(=O)[C@@H]2C[C@@H](O)CN2C(=O)[C@@H](NC(=O)CCCCCCCCC(=O)NC2C3CCC2CN(c2cc(-c4ccccc4O)nnc2N)C3)C(C)(C)C)cc1 (stereo partly drawn) [Example 89, N-[3-[3-amino-6-(2-hydroxyphenyl)pyridazin-4-yl]-3-azabicyclo[3.2.1]octan-8-yl]-N′-[(1S)-1-[(2S,4R)-4-hydroxy-2-[[4-(4-methylthiazol-5-yl)phenyl]methylcarbamoyl]pyrrolidine-1-carbonyl]-2,2-dimethyl-propyl]decanediamide] | 56 | 1010 |  | 
2 | Cc1ncsc1-c1ccc([C@H](C)NC(=O)[C@@H]2C[C@@H](O)CN2C(=O)[C@@H](NC(=O)CCCCCC(=O)N2CCN(c3cccc(OC4CN(c5cc(-c6ccccc6O)nnc5N)C4)c3)CC2)C(C)(C)C)cc1 [Example 94, (2S,4R)-1-[(2S)-2-[[7-[4-[3-[1-[3-amino-6-(2-hydroxyphenyl)pyridazin-4-yl]azetidin-3-yl]oxyphenyl]piperazin-1-yl]-7-oxo-heptanoyl]amino]-3,3-dimethyl-butanoyl]-4-hydroxy-N-[(1S)-1-[4-(4-methylthiazol-5-yl)phenyl]ethyl]pyrrolidine-2-carboxamide] | 43 | 693 |  | 
3 | Cc1ncsc1-c1ccc(CNC(=O)[C@@H]2C[C@@H](O)CN2C(=O)[C@@H](NC(=O)CCCCCCCCC(=O)N[C@H]2C[C@H](Oc3cc(-c4ccccc4O)nnc3N)C2)C(C)(C)C)cc1 [Example 95, N-[3-[3-amino-6-(2-hydroxyphenyl)pyridazin-4-yl]oxycyclobutyl]-N′-[(1S)-1-[(2S,4R)-4-hydroxy-2-[[4-(4-methylthiazol-5-yl)phenyl]methylcarbamoyl]pyrrolidine-1-carbonyl]-2,2-dimethyl-propyl]decanediamide] | 50 | 2440 |  | 
4 | Cc1ncsc1-c1ccc([C@H](C)NC(=O)[C@@H]2C[C@@H](O)CN2C(=O)[C@@H](NC(=O)CCCCCCCCC(=O)N2CCN(c3cccc(OC4CN(c5cc(-c6ccccc6O)nnc5N)C4)c3)CC2)C(C)(C)C)cc1 [Example 96, (2S,4R)-1-[(2S)-2-[[10-[4-[3-[1-[3-amino-6-(2-hydroxyphenyl)pyridazin-4-yl]azetidin-3-yl]oxyphenyl]piperazin-1-yl]-10-oxo-decanoyl]amino]-3,3-dimethyl-butanoyl]-4-hydroxy-N-[(1S)-1-[4-(4-methylthiazol-5-yl)phenyl]ethyl]pyrrolidine-2-carboxamide] | 28 | 200 |  | 
5 | Cc1ncsc1-c1ccc(CNC(=O)[C@@H]2C[C@@H](O)CN2C(=O)[C@@H](NC(=O)CCCCCCCCC(=O)N2CCC(CNC(=O)C3(c4ccccc4)CCN(c4cc(-c5ccccc5O)nnc4N)CC3)CC2)C(C)(C)C)cc1 [Example 99, 1-[3-amino-6-(2-hydroxyphenyl)pyridazin-4-yl]-N-[[1-[10-[[(1S)-1-[(2S,4R)-4-hydroxy-2-[[4-(4-methylthiazol-5-yl)phenyl]methylcarbamoyl]pyrrolidine-1-carbonyl]-2,2-dimethyl-propyl]amino]-10-oxo-decanoyl]-4-piperidyl]methyl]-4-phenyl-piperidine-4-carboxamide] | 59 | 827 |  | 
6 | Cc1ncsc1-c1ccc(CNC(=O)[C@@H]2C[C@@H](O)CN2C(=O)[C@@H](NC(=O)CCCCCCCCC(=O)N2CCN(c3ccc(N4CCCC(Oc5cc(-c6ccccc6N)nnc5N)C4)cc3)CC2)C(C)(C)C)cc1 (stereo partly drawn) [Example 100, (2S,4R)-1-[(2S)-2-[[10-[4-[4-[3-[3-amino-6-(2-aminophenyl)pyridazin-4-yl]oxy-1-piperidyl]phenyl]piperazin-1-yl]-10-oxo-decanoyl]amino]-3,3-dimethyl-butanoyl]-4-hydroxy-N-[[4-(4-methylthiazol-5-yl)phenyl]methyl]pyrrolidine-2-carboxamide] | 62 | 998 |  | 
7 | Cc1ncsc1-c1ccc([C@H](C)NC(=O)[C@@H]2C[C@@H](O)CN2C(=O)[C@@H](NC(=O)CCCCCCCCC(=O)N2CCN(C(=O)c3cccc(OC4CN(c5cc(-c6ccccc6O)nnc5N)C4)c3)CC2)C(C)(C)C)cc1 [Example 101, (2S,4R)-1-[(2S)-2-[[10-[4-[3-[1-[3-amino-6-(2-hydroxyphenyl)pyridazin-4-yl]azetidin-3-yl]oxybenzoyl]piperazin-1-yl]-10-oxo-decanoyl]amino]-3,3-dimethyl-butanoyl]-4-hydroxy-N-[(1S)-1-[4-(4-methylthiazol-5-yl)phenyl]ethyl]pyrrolidine-2-carboxamide] | 38 | 101 |  | 
8 | Cc1ncsc1-c1ccc(CNC(=O)[C@@H]2C[C@@H](O)CN2C(=O)[C@@H](NC(=O)CCCCCCCCCC(=O)N2CCN(Cc3cccc(N4C5CCC4CN(c4cc(-c6ccccc6N)nnc4N)C5)c3)CC2)C(C)(C)C)cc1 [Example 102, (2S,4R)-1-[(2S)-2-[[11-[4-[[3-[3-[3-amino-6-(2-aminophenyl)pyridazin-4-yl]-3,8-diazabicyclo[3.2.1]octan-8-yl]phenyl]methyl]piperazin-1-yl]-11-oxo-undecanoyl]amino]-3,3-dimethyl-butanoyl]-4-hydroxy-N-[[4-(4-methylthiazol-5-yl)phenyl]methyl]pyrrolidine-2-carboxamide] | 59 | 992 |  | 
9 | Cc1ncsc1-c1ccc([C@H](C)NC(=O)[C@@H]2C[C@@H](O)CN2C(=O)[C@@H](NC(=O)CCCCCC(=O)N2CCN(C(=O)c3ccc(OC4CN(c5cc(-c6ccccc6O)nnc5N)C4)cc3)CC2)C(C)(C)C)cc1 [Example 103, (2S,4R)-1-[(2S)-2-[[7-[4-[4-[1-[3-amino-6-(2-hydroxyphenyl)pyridazin-4-yl]azetidin-3-yl]oxybenzoyl]piperazin-1-yl]-7-oxo-heptanoyl]amino]-3,3-dimethyl-butanoyl]-4-hydroxy-N-[(1S)-1-[4-(4-methylthiazol-5-yl)phenyl]ethyl]pyrrolidine-2-carboxamide] | 60 | 1890 |  | 
10 | Cc1ncsc1-c1ccc([C@H](C)NC(=O)[C@@H]2C[C@@H](O)CN2C(=O)[C@@H](NC(=O)CCCCCCCCC(=O)N2CCN(C(=O)c3ccc(OC4CN(c5cc(-c6ccccc6O)nnc5N)C4)cc3)CC2)C(C)(C)C)cc1 [Example 104, (2S,4R)-1-[(2S)-2-[[10-[4-[4-[1-[3-amino-6-(2-hydroxyphenyl)pyridazin-4-yl]azetidin-3-yl]oxybenzoyl]piperazin-1-yl]-10-oxo-decanoyl]amino]-3,3-dimethyl-butanoyl]-4-hydroxy-N-[(1S)-1-[4-(4-methylthiazol-5-yl)phenyl]ethyl]pyrrolidine-2-carboxamide] | 54 | 375 |  | 
11 | Cc1ncsc1-c1ccc([C@H](C)NC(=O)[C@@H]2C[C@@H](O)CN2C(=O)[C@@H](NC(=O)CCCCCC(=O)N2CCN(Cc3cccc(CCOc4cc(-c5ccccc5O)nnc4N)c3)CC2)C(C)(C)C)cc1 [Example 105, (2S,4R)-1-[(2S)-2-[[7-[4-[[3-[2-[3-amino-6-(2-hydroxyphenyl)pyridazin-4-yl]oxyethyl]phenyl]methyl]piperazin-1-yl]-7-oxo-heptanoyl]amino]-3,3-dimethyl-butanoyl]-4-hydroxy-N-[(1S)-1-[4-(4-methylthiazol-5-yl)phenyl]ethyl]pyrrolidine-2-carboxamide] | 40 | 923 |  | 
12 | Cc1ncsc1-c1ccc([C@H](C)NC(=O)[C@@H]2C[C@@H](O)CN2C(=O)[C@@H](NC(=O)CCCCCCCCC(=O)N2CCN(Cc3cccc(CCOc4cc(-c5ccccc5O)nnc4N)c3)CC2)C(C)(C)C)cc1 [Example 106, (2S,4R)-1-[(2S)-2-[[10-[4-[[3-[2-[3-amino-6-(2-hydroxyphenyl)pyridazin-4-yl]oxyethyl]phenyl]methyl]piperazin-1-yl]-10-oxo-decanoyl]amino]-3,3-dimethyl-butanoyl]-4-hydroxy-N-[(1S)-1-[4-(4-methylthiazol-5-yl)phenyl]ethyl]pyrrolidine-2-carboxamide] | 39 | 346 |  | 
13 | Cc1ncsc1-c1ccc(CNC(=O)[C@@H]2C[C@@H](O)CN2C(=O)[C@@H](NC(=O)CCCCCCCCC(=O)N2CCN(Cc3cccc(N4C5CCC4CN(c4cc(-c6cc(F)ccc6O)nnc4N)C5)c3)CC2)C(C)(C)C)cc1 [Example 107, (2S,4R)-1-[(2S)-2-[[10-[4-[[3-[3-[3-amino-6-(5-fluoro-2-hydroxy-phenyl)pyridazin-4-yl]-3,8-diazabicyclo[3.2.1]octan-8-yl]phenyl]methyl]piperazin-1-yl]-10-oxo-decanoyl]amino]-3,3-dimethyl-butanoyl]-4-hydroxy-N-[[4-(4-methylthiazol-5-yl)phenyl]methyl]pyrrolidine-2-carboxamide] |  |  | 18 | 82
14 | Cc1ncsc1-c1ccc(CNC(=O)[C@@H]2C[C@@H](O)CN2C(=O)[C@@H](NC(=O)CCCCCCCCCC(=O)N2CCN(CCOc3cccc(N4CC5CCC(C4)N5c4cc(-c5cc(F)ccc5O)nnc4N)c3)CC2)C(C)(C)C)cc1 [Example 110, (2S,4R)-1-[(2S)-2-[[11-[4-[2-[3-[8-[3-amino-6-(5-fluoro-2-hydroxy-phenyl)pyridazin-4-yl]-3,8-diazabicyclo[3.2.1]octan-3-yl]phenoxy]ethyl]piperazin-1-yl]-11-oxo-undecanoyl]amino]-3,3-dimethyl-butanoyl]-4-hydroxy-N-[[4-(4-methylthiazol-5-yl)phenyl]methyl]pyrrolidine-2-carboxamide] | 76 | 760 |  | 
